{"source": "paper PMC11124870", "about": "“Effect of Antioxidants in Medicinal Products on Intestinal Drug Transporters” (Pharmaceutics, 2024)", "key": {"[1]": {"biological_target": "P-gp (human MDR1) (Homo sapiens, UniProt P08183)", "sequence (P08183 whole entry)": "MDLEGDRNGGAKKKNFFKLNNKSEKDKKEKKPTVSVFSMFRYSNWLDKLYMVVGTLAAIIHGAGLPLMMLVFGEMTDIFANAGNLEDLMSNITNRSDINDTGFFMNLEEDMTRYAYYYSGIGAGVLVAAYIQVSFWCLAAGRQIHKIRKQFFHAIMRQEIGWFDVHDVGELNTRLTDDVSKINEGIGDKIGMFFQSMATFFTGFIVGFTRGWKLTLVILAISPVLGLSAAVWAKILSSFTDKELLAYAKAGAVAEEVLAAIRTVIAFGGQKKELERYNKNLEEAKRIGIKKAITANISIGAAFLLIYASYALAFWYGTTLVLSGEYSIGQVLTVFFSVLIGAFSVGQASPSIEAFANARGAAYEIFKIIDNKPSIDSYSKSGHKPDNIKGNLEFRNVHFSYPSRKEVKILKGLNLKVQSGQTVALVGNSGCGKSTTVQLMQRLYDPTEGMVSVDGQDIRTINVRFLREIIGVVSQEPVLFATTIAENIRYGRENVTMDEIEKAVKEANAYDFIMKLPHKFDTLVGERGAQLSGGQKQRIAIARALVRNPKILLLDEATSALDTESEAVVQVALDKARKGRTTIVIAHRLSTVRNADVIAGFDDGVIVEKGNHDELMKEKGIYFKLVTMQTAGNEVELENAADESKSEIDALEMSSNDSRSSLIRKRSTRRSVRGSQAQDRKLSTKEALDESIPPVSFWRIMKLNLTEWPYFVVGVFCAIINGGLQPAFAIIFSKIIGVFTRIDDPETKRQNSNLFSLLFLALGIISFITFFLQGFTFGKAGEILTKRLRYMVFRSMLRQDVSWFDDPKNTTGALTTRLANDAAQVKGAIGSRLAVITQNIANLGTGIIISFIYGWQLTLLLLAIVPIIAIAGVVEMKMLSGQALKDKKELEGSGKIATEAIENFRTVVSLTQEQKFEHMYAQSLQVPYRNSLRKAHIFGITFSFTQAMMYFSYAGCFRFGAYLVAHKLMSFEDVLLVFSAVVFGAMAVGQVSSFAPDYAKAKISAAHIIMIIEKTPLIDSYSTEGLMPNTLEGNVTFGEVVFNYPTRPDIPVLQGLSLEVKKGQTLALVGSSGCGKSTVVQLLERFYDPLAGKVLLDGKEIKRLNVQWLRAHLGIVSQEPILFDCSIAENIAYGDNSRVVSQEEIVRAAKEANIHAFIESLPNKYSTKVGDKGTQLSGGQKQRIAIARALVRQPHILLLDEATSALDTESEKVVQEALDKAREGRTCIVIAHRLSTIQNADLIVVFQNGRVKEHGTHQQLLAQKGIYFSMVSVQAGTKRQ", "test": "Transwell transport assay, basal-to-apical digoxin flux in MDCK-hMDR1-cMDR1-KO cells", "conditions": "3H-digoxin 2.5 µM, 4 h", "protocol": "(§1) The transport assay was performed using MDCK-hMDR1-cMDR1-KO, MDCK-cMDR1-KO, and MDCK-hBCRP-cMDR1-KO as reported previously with minor modifications. In brief, 133,000 cells were seeded onto a Transwell membrane insert, a semipermeable polyethylene terephthalate membrane. During the differentiation process, the medium volume in the apical chamber was kept at 300 μL, while the basal chamber contained 1000 μL. The cells were allowed to differentiate for 7–9 days at 37 °C in a humidified incubator with 5% CO2. Before starting transporter assays, the integrity of the cell monolayer was checked using lucifer yellow permeability assays. […] From the basal chamber, 100 μL samples were collected for fluorescence measurements using GloMax® Explorer with a 475 nm excitation filter and a 500–550 nm emission filter to calculate the percent permeability per well.\n(§2) To assess the flux of digoxin or prazosin from the basal to apical side, the cells were washed twice with HBSS. […] All apical and basal samples were mixed with scintillation fluid (EcoLite(+)™ liquid scintillation cocktail), and their radioactivity was measured using liquid scintillation counting (Beckman LS6500). […] For data analysis, the disintegration per minute counts of digoxin or prazosin from the apical samples were converted to picomoles using radioactivity measured in the substrate solution."}, "[2]": {"biological_target": "T1, BCRP (Homo sapiens, UniProt Q9UNQ0)", "T1 sequence (Q9UNQ0 1-655)": "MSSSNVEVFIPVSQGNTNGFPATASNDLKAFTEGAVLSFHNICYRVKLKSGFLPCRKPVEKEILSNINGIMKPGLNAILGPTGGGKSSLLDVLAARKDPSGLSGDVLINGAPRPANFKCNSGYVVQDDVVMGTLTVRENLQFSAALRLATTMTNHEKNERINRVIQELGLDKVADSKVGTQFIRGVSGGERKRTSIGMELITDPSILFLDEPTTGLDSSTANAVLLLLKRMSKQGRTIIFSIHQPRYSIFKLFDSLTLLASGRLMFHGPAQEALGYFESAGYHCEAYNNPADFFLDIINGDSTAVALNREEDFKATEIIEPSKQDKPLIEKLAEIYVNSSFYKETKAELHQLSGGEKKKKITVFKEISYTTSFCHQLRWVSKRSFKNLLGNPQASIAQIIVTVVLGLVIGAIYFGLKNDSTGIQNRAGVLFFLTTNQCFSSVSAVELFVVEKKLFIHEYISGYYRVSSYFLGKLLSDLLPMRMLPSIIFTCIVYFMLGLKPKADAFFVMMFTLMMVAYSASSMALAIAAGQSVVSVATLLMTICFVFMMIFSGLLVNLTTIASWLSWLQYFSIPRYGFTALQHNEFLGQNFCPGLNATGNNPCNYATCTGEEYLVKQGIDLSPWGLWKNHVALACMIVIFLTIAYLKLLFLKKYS", "test": "Transwell transport assay, basal-to-apical prazosin flux in MDCK-hBCRP-cMDR1-KO cells", "conditions": "BHA 178 µM on both sides; 3H-prazosin 1 µM; 4 h", "protocol": "as §1, §2"}, "[3]": {"test": "Estimation of intestinal luminal concentration (Igut), dose/250 mL", "conditions": "estimated from maximum oral amount (AP 10 mg, BHA 8 mg) in 250 mL intestinal fluid", "protocol": "Igut is intestinal luminal concentration estimated as dose/250 mL. The Igut concentration was estimated using the following equation: Igut=A÷MW×V×10^6 where Igut is the estimated intestinal luminal concentration (µM), A is the amount of antioxidant in an oral dosage (mg), MW is the molecular weight, and V is the volume of intestinal fluid, i.e., 250 mL."}, "[4]": {"test_system": "MDCK cell tight junctions", "test": "Lucifer yellow permeability assay of MDCK monolayer integrity", "format": "cell-based", "conditions": "BHA 250 µM", "procedure": "The transport assay was performed using MDCK-hMDR1-cMDR1-KO, MDCK-cMDR1-KO, and MDCK-hBCRP-cMDR1-KO as reported previously with minor modifications [14, 27]. In brief, 133,000 cells were seeded onto a Transwell membrane insert, a semipermeable polyethylene terephthalate membrane. During the differentiation process, the medium volume in the apical chamber was kept at 300 μL, while the basal chamber contained 1000 μL. The cells were allowed to differentiate for 7–9 days at 37 °C in a humidified incubator with 5% CO2. Before starting transporter assays, the integrity of the cell monolayer was checked using lucifer yellow permeability assays. Cells were washed twice with HBSS, lucifer yellow (0.1 mg/mL) in HBSS was added to the apical chamber, and the basal chamber was filled with fresh HBSS. The assembled plate was then incubated at 37 °C for 1 h. From the basal chamber, 100 μL samples were collected for fluorescence measurements using GloMax® Explorer with a 475 nm excitation filter and a 500–550 nm emission filter to calculate the percent permeability per well.\nAt the end of the transport assay, a lucifer yellow permeability assay was performed as described earlier."}, "[5]": {"conditions": "Table S1; source not stated; cited from earlier work"}, "[6]": {"biological_target": "T2, OATP2B1 (Homo sapiens, UniProt O94956)", "T2 sequence (O94956 1-709)": "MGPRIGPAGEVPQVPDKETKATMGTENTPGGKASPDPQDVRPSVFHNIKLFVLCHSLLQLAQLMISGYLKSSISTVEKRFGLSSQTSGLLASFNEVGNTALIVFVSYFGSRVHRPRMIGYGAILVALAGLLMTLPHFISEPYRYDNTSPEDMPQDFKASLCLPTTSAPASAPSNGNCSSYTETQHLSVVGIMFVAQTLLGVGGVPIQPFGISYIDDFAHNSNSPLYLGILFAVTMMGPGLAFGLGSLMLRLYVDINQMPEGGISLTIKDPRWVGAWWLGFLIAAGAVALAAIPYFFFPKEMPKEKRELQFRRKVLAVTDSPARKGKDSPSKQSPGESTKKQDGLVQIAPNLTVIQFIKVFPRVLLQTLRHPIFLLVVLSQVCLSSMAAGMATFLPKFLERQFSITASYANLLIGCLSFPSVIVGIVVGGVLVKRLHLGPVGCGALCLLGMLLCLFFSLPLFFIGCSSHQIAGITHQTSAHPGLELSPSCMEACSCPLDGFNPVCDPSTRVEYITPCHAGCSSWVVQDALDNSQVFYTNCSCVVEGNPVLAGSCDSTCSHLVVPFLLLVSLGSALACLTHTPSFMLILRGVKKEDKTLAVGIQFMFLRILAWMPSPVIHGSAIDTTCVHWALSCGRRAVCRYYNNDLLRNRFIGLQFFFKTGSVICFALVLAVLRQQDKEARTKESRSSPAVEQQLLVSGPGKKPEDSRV", "test": "3H-valsartan uptake inhibition in HEK-293-OATP2B1 cells", "conditions": "read-out: IC50 OATP2B1, valsartan uptake, substrate 3H-valsartan, three independent experiments", "procedure": "(§3) The uptake transporter assay was performed as reported previously with minor modifications [15]. A day before the uptake assay, Isoplate 96-well plates were coated with poly-D-lysine in PBS with calcium and magnesium and washed with PBS. […] An assay mixture of ^3H-estrone sulfate, a known inhibitor of OATP2B1, or an antioxidant was prepared and incubated in a 37 °C incubator for 10 min. The cells were washed with ice-cold HBSS three times and incubated with MicroScint fluid on a shaker for 1 h for cell lysis. Radioactivity was measured by liquid scintillation counting with a MicroBeta^2® microplate counter. […] On the day of experiment, cells were washed twice with 0.4 mL of HBSS per well and then pre-incubated for 10–20 min in 0.4 mL of HBSS. […] Uptake of ^3H-valsartan was stopped after 15 min by washing three times with ice-cold HBSS. Cells were lysed in 750 µL of lysis buffer (0.1 N NaOH and 0.1% SDS in double-distilled water) per well while shaking for 60 min. A total of 690 µL of the lysate from each well was then added to 2.5 mL of EcoLite scintillation fluid. The radioactivity was determined on a LS6500 Scintillation Counter (Beckman Coulter). Protein concentration was measured with a Pierce™ BCA protein assay kit. The radioactivity in each well was corrected for protein concentration. All values were determined in triplicate, and the final values are expressed as % uptake relative to negative control (1% DMSO).\n(§4) Antioxidants were screened at a concentration of 200 μM."}, "[7]": {"biological_target": "T2, OATP2B1", "test": "Uptake transporter assay, 3H-estrone sulfate uptake in HEK-293-OATP2B1 cells", "conditions": "for IC50: mean ± SD of three independent experiments", "procedure": "as §3, §4"}}, "note": "Values joined by “and” are separate entries in the source; they are usually repeats but may differ in a detail not shown here. Identical values can stand only once. “Also recorded” adds a separate entry of the source.", "data": [{"smiles": "COc1ccc(O)cc1C(C)(C)C", "note": "[Butylated hydroxyanisole (BHA), 2-tert-Butyl-4-hydroxyanisole]", "values": [{"measurement": "Inhibition of digoxin transport (basal to apical)", "setting": "[1]; BHA 62.5 µM on both sides", "value": "Neither the estimated maximal intestinal concentration of 178 µM nor a lower concentration (62.5 µM) inhibited digoxin transport"}, {"measurement": "Inhibition of digoxin transport (basal to apical)", "setting": "[1]; BHA 178 µM on both sides", "value": "Neither the estimated maximal intestinal concentration of 178 µM nor a lower concentration (62.5 µM) inhibited digoxin transport; also recorded: did not impede digoxin transport"}, {"measurement": "Inhibition of prazosin efflux (basal to apical)", "setting": "[2]", "value": "did not inhibit prazosin efflux"}, {"measurement": "Max Intestinal Conc (µM) in 250 mL Fluid", "setting": "[3]", "value": 178, "unit": "µM"}, {"measurement": "Effect on MDCK cell tight junctions (lucifer yellow permeability)", "setting": "[4]", "value": "disrupted MDCK cell tight junctions"}, {"measurement": "LogP", "setting": "[5]", "value": 3.2}, {"measurement": "IC50", "setting": "[6]", "value": "19 µM and 19.1 µM"}, {"measurement": "Inhibition of OATP2B1", "setting": "[7]; 200 µM, 3H-estrone sulfate", "value": "at least 50%"}, {"measurement": "Effect of 30 min pre-incubation on inhibition potency", "setting": "[7]; OATP2B1-expressing cells pre-incubated for 30 min", "value": "did not further affect their inhibition potency"}, {"measurement": "% Uptake of 3H-ES OATP2B1", "setting": "[7]; antioxidant 200 µM, uptake with DMSO set as 100%, mean ± SD, three replicates, HEK-293-OATP2B1 cells", "value": "19.8 ± 7.1", "unit": "%"}, {"measurement": "IC50", "setting": "[7]; read-out: IC50 OATP2B1, substrate 3H-estrone sulfate", "value": "71 ± 20", "unit": "µM"}, {"measurement": "IC50", "setting": "[7]; read-out: IC50 with preincubation, OATP2B1 expressing cells pre-incubated 30 minutes", "value": "67 ± 12.8", "unit": "µM"}, {"measurement": "IC50", "setting": "[7]; read-out: IC50 without preincubation, OATP2B1 expressing cells", "value": "76.9 ± 15.9", "unit": "µM"}]}]}
